Laboratory results: US20230067929A1, “HETEROCYCLIC DERIVATIVES, PHARMACEUTICAL COMPOSITIONS AND THEIR USE IN THE TREATMENT, AMELIORATION OR PREVENTION OF CANCER” (Tolremo Therapeutics AG, priority 2018, published 2023)

System: A375 cells
Test: A375 cell immunofluorescence assay (with 1 μM S1152 and 0.5 μM S1008), EC50
Assay type: cell-based
Settings: 1 μM S1152 + 0.5 μM S1008, one day, ratio FL2/FL3 staining (sc-365823 antibody)
Experimental: One thousand four hundred A375 cells were seeded in each well of a 384 well microplate. One day later they were treated with 1 μM S1152 (Selleckchem) in dimethyl sulfoxide, 0.5 μM S1008 (Selleckchem) and dose ranges of invention compounds for one day in Dulbecco's Modified Eagle's Medium supplemented with 10% fetal calf serum and 2 mM (2S)-2-amino-4-carbamoylbutanoic acid. Wells were incubated with 4% polyoxymethylene (Sigma Aldrich 158127) at ambient temperature. After ten minutes, polyoxymethylene was replaced with phosphate-buffered saline. After one minute phosphate-buffered saline was replaced with 0.2% polyethylene glycol octylphenyl ether in phosphate-buffered saline. After ten minutes at ambient temperature 0.2% polyethylene glycol octylphenyl ether in phosphate-buffered saline was replaced with 1% aminoethanoic acid in phosphate-buffered saline. […] After one hour at 37° C., the solution was replaced with phosphate-buffered saline twice. Phosphate-buffered saline was replaced with 2 μg/ml A-11029 (Invitrogen) in 0.05% polyoxyethylene (20) sorbitan monolaurate in phosphate-buffered saline. […] After one hour at ambient temperature in the dark, signal in wells was measured with a Acumen Cellista. 3,8-Diamino-5-[3-(diethylmethylammonio)propyl]-6-phenylphenanthridinium diiodide-positive objects were defined in FL3 (565-600 nm) with a perimeter between 50-800 μm and a total intensity of 10000-1000000 FLU. Signal in FL2 (500-530 nm) was measured in defined objects. A normalized ratio of total ln FL2 over total ln FL3 staining was log transformed. A non-linear regression (variable slope, 4 parameters) was used to calculate EC50 values using GraphPad Prism (Version 7.0d).

SMILES	EC50 [µM]
CCC(=O)N1CCCC(c2nc(Nc3ccccc3F)cc(-c3cccnc3)n2)C1 (stereo not drawn)	1 to 10
CCC(=O)N1CCCC(c2nc(Nc3cccc(OC)c3)cc(-c3cccnc3)n2)C1 (stereo not drawn)	1 to 10
COc1cncc(-c2cc(Nc3cncc(C)c3)nc([C@@H]3CC[C@H](C)N(C(C)=O)C3)n2)c1	< 1
CCC(=O)N1CCCC(c2nc(Nc3cccc(Cl)c3)cc(-c3cccnc3)n2)C1 (stereo not drawn)	1 to 10
CCC(=O)N1CCCC(c2nc(Nc3ccccc3)cc(-c3cccnc3)n2)C1 (stereo not drawn)	1 to 10
CCC(=O)N1CCCC(c2nc(Nc3ccc(O)nc3)cc(-c3cccnc3)n2)C1 (stereo not drawn)	> 10
CCC(=O)N1CCCC(c2nc(Nc3ccccc3Cl)cc(-c3cccnc3)n2)C1 (stereo not drawn)	1 to 10
CCC(=O)N1CCCC(c2nc(Nc3cc(OC)cc(OC)c3)cc(-c3cccnc3)n2)C1 (stereo not drawn)	1 to 10
COC(=O)N1CCCC(c2nc(Nc3cccc(F)c3)cc(-c3cccnc3)n2)C1 (stereo not drawn)	1 to 10
Fc1cccc(Nc2cc(-c3cccnc3)nc(C3CCCNC3)n2)c1 (stereo not drawn)	> 10
CC(=O)N1CCCC(c2nc(Nc3cccc(F)c3)cc(-c3cccnc3)n2)C1 (stereo not drawn)	< 1
O=C(N1CCCC(c2nc(Nc3cccc(F)c3)cc(-c3cccnc3)n2)C1)C(F)(F)F (stereo not drawn)	> 10
COc1cncc(-c2cc(Nc3cccc(F)c3)nc(C3CCCN(C(C)=O)C3)n2)c1 (stereo not drawn)	< 1
CC(=O)N1CCCC(c2nc(Nc3cccc(F)c3)cc(-c3cncc(C)c3)n2)C1 (stereo not drawn)	< 1
CC(=O)N1CCCC(c2nc(Nc3cccc(F)c3)cc(-c3cncc(C(F)F)c3)n2)C1 (stereo not drawn)	< 1
O=C(C1CC1)N1CCCC(c2nc(Nc3cccc(F)c3)cc(-c3cccnc3)n2)C1 (stereo not drawn)	1 to 10
CC(C)C(=O)N1CCCC(c2nc(Nc3cccc(F)c3)cc(-c3cccnc3)n2)C1 (stereo not drawn)	> 10
[2H]C([2H])([2H])C(=O)N1CCCC(c2nc(Nc3cccc(F)c3)cc(-c3cccnc3)n2)C1 (stereo not drawn)	< 1
O=C(CC(F)(F)F)N1CCCC(c2nc(Nc3cccc(F)c3)cc(-c3cccnc3)n2)C1 (stereo not drawn)	> 10
CC(F)(F)C(=O)N1CCCC(c2nc(Nc3cccc(F)c3)cc(-c3cccnc3)n2)C1 (stereo not drawn)	> 10

SMILES	EC50 [µM]
O=C(C(F)F)N1CCCC(c2nc(Nc3cccc(F)c3)cc(-c3cccnc3)n2)C1 (stereo not drawn)	> 10
O=CN1CCCC(c2nc(Nc3cccc(F)c3)cc(-c3cccnc3)n2)C1 (stereo not drawn)	> 10
COCCOCCOCC(=O)N1CCCC(c2nc(Nc3cccc(F)c3)cc(-c3cccnc3)n2)C1 (stereo not drawn)	> 10
CC(=O)N1CCCC(c2nc(Nc3cccc(F)c3)cc(NC3CCOCC3)n2)C1 (stereo not drawn)	> 10
CC(=O)N1CCCC(c2nc(Nc3cccc(F)c3)cc(NC3CCCOC3)n2)C1 (stereo not drawn)	1 to 10
CC(=O)N1CCCC(Nc2cc(Nc3cccc(F)c3)nc(C3CCCN(C(C)=O)C3)n2)C1 (stereo not drawn)	> 10
CC(=O)N1C[C@H](c2nc(Nc3cncc(C)c3)cc(Nc3ncccn3)n2)CC[C@@H]1C	< 1
CC(C)CN1CCCC(c2nc(Nc3cccc(F)c3)cc(-c3cccnc3)n2)C1 (stereo not drawn)	> 10
CCN1CCCC(c2nc(Nc3cccc(F)c3)cc(-c3cccnc3)n2)C1 (stereo not drawn)	> 10
CN1CCCC(c2nc(Nc3cccc(F)c3)cc(-c3cccnc3)n2)C1 (stereo not drawn)	> 10
CCCN1CCCC(c2nc(Nc3cccc(F)c3)cc(-c3cccnc3)n2)C1 (stereo not drawn)	> 10
CCC(=O)N1CCCC(c2nc(NC3CC3)cc(-c3cccnc3)n2)C1 (stereo not drawn)	> 10
CCC(=O)N1CCCC(c2nc(NC3CCCCC3)cc(-c3cccnc3)n2)C1 (stereo not drawn)	> 10
CCC(=O)N1CCCC(c2nc(NC3CCCC3)cc(-c3cccnc3)n2)C1 (stereo not drawn)	> 10
CCC(=O)N1CCCC(c2nc(NCc3ccccc3)cc(-c3cccnc3)n2)C1 (stereo not drawn)	> 10
CCC(=O)N1CCCC(c2nc(-c3cccnc3)cc(N3CCOCC3)n2)C1 (stereo not drawn)	> 10
CCC(=O)N1CCCC(c2nc(NC)cc(-c3cccnc3)n2)C1 (stereo not drawn)	> 10
CCC(=O)N1CCCC(c2nc(Nc3cccc(F)c3)cc(C3CCOCC3)n2)C1 (stereo not drawn)	> 10
CCC(=O)N1CCCC(c2nc(Nc3cccc(F)c3)cc(C3CCCCC3)n2)C1 (stereo not drawn)	> 10
CCC(=O)N1CCCC(c2nc(-c3cccnc3)cc(N(C)c3cccc(F)c3)n2)C1 (stereo not drawn)	1 to 10

SMILES	EC50 [µM]
CCC(=O)N1CCCC(c2nc(-c3cccnc3)cc(N(c3cccc(F)c3)C(C)C)n2)C1 (stereo not drawn)	> 10
COc1cncc(-c2cc(N(C)c3cccc(C)c3)nc(C3CCCN(C(C)=O)C3)n2)c1 (stereo not drawn)	1 to 10
CCC(=O)N1CCCC(c2nc(Cl)cc(Oc3cccc(F)c3)n2)C1 (stereo not drawn)	> 10
CCC(=O)N1CCCC(c2nc(Oc3cccc(F)c3)cc(-c3cccnc3)n2)C1 (stereo not drawn)	> 10
CCC(=O)N1CCCC(c2nc(Cc3cccc(F)c3)cc(-c3cccnc3)n2)C1 (stereo not drawn)	> 10
COc1cncc(-c2cc(Cc3cccc(F)c3)nc(C3CCCN(C(C)=O)C3)n2)c1 (stereo not drawn)	> 10
CC(=O)N1CCCC(c2nc(Nc3cccc(F)c3)cc(-c3ncco3)n2)C1 (stereo not drawn)	> 10
CC(=O)N1CCCC(c2nc(Nc3cccc(F)c3)cc(-c3ncc(C)o3)n2)C1 (stereo not drawn)	> 10
CC(=O)N1C[C@H](c2nc(Nc3cncc(C)c3)cc(-c3cncnc3)n2)CC[C@@H]1C	< 1
CNC(=O)N1CCCC(c2nc(Nc3cccc(F)c3)cc(-c3cccnc3)n2)C1 (stereo not drawn)	1 to 10
CC(=O)N1CCOC(c2nc(Nc3cccc(F)c3)cc(-c3cccnc3)n2)C1 (stereo not drawn)	> 10
CN1CCOC(c2nc(Nc3cccc(F)c3)cc(-c3cccnc3)n2)C1 (stereo not drawn)	> 10
CS(=O)(=O)N1CCCC(c2nc(Nc3cccc(F)c3)cc(-c3cccnc3)n2)C1 (stereo not drawn)	> 10
O=S(=O)(N1CCCC(c2nc(Nc3cccc(F)c3)cc(-c3cccnc3)n2)C1)C(F)(F)F (stereo not drawn)	> 10
CC(=O)N1CCC[C@H](c2nc(Nc3cccc(F)c3)cc(-c3cccnc3)n2)C1	> 10
COc1cncc(-c2cc(Nc3cccc(Cl)c3)nc([C@H]3CCCN(C(C)=O)C3)n2)c1	1 to 10
COc1cncc(-c2cc(Nc3cccc(Cl)c3)nc([C@@H]3CCCN(C(C)=O)C3)n2)c1	< 1
CC(=O)N1CCCC(c2nc(Nc3cccc(F)c3)nc(-c3ccccc3)n2)C1 (stereo not drawn)	1 to 10
CC(=O)N1CCCC(c2cc(-c3cccnc3)cc(Nc3cccc(F)c3)n2)C1 (stereo not drawn)	1 to 10
CC(=O)N1CCCC(c2cc(Nc3cccc(F)c3)cc(-c3cccnc3)n2)C1 (stereo not drawn)	1 to 10

Second part, the compound after the results:

EC50 [µM]	SMILES
> 10	CCC(=O)N1CCCC(c2nc(Cl)cc(Nc3cccc(F)c3)n2)C1 (stereo not drawn)
> 10	CCC(=O)N1CCCC(c2nc(Nc3cccc(F)c3)cc(-c3cnc(N)nc3)n2)C1 (stereo not drawn)
> 10	CCC(=O)N1CCCC(c2nc(Nc3cccc(F)c3)cc(-c3cnc(NC)nc3)n2)C1 (stereo not drawn)
> 10	CCC(=O)N1CCC(c2nc(Nc3cccc(F)c3)cc(-c3cccnc3)n2)C1 (stereo not drawn)
> 10	CCC(=O)N1CCCC(c2nc(C)cc(Nc3cccc(F)c3)n2)C1 (stereo not drawn)
> 10	CCC(=O)N1CCCC(c2nc(Nc3cccc(F)c3)cc(C3=CCOCC3)n2)C1 (stereo not drawn)
> 10	CCC(=O)N1CCCC(c2nc(Nc3cccc(F)c3)cc(-c3cc[nH]n3)n2)C1 (stereo not drawn)
> 10	CCC(=O)N1CCCC(c2nc(Nc3cccc(F)c3)cc(C3=CCCCC3)n2)C1 (stereo not drawn)
1 to 10	CCC(=O)N1CCCC(c2nc(Nc3cc(F)cc(F)c3)cc(-c3cccnc3)n2)C1 (stereo not drawn)
1 to 10	CC(=O)N1CCCC(c2nc(Nc3cccc(F)c3)cc(-c3ccccc3)n2)C1 (stereo not drawn)
> 10	CCC(=O)N1CCCC(c2nc(Nc3cccc(F)c3)cc(NC3CC3)n2)C1 (stereo not drawn)
> 10	CCC(=O)N1CCCC(c2nc(Nc3cccc(F)c3)cc(Nc3cccc(F)c3)n2)C1 (stereo not drawn)
1 to 10	CCC(=O)N1CCCC(c2nc(Nc3cccc(F)c3)cc(Nc3ncccn3)n2)C1 (stereo not drawn)
> 10	CCC(=O)N1CCCC(c2nc(Nc3cccc(F)c3)cc(NC3CCC3)n2)C1 (stereo not drawn)
> 10	CCC(=O)N1CCCC(c2nc(Nc3cccc(F)c3)cc(Nc3cnccn3)n2)C1 (stereo not drawn)
> 10	CCC(=O)N1CCCC(c2nc(Nc3cccc(F)c3)cc(NC3CCCCC3)n2)C1 (stereo not drawn)
> 10	CCC(=O)N1CCCC(c2nc(Nc3cccc(F)c3)cc(NC3CCOC3)n2)C1 (stereo not drawn)
< 1	CC(=O)N1CCCC(c2nc(Nc3cccc(F)c3)cc(Nc3ncccn3)n2)C1 (stereo not drawn)
1 to 10	CC(=O)N1CCCC(c2nc(Nc3cccc(F)c3)cc(Nc3ccccn3)n2)C1 (stereo not drawn)
> 10	CC(=O)N1CCCC(c2nc(Nc3ccncc3)cc(Nc3cccc(F)c3)n2)C1 (stereo not drawn)
1 to 10	CC(=O)N1CCCC(c2nc(Nc3cncnc3)cc(Nc3cccc(F)c3)n2)C1 (stereo not drawn)
1 to 10	CC(=O)N1CCCC(c2nc(Nc3cccnc3)cc(Nc3cccc(F)c3)n2)C1 (stereo not drawn)
> 10	CCC(=O)N1CCCC(c2nc(NCc3ccccc3)cc(Nc3cccc(F)c3)n2)C1 (stereo not drawn)
> 10	CCC(=O)N1CCCC(c2nc(NCCN(C)C)cc(Nc3cccc(F)c3)n2)C1 (stereo not drawn)
> 10	CCC(=O)N1CCCC(c2nc(Nc3cccc(F)c3)cc(C3CCCC3)n2)C1 (stereo not drawn)
> 10	CCC(=O)N1CCCC(c2nc(Nc3cccc(F)c3)cc(-c3ncccn3)n2)C1 (stereo not drawn)
> 10	CCC(=O)N1CCCC(c2nc(Nc3cccc(F)c3)cc(-c3cscn3)n2)C1 (stereo not drawn)
< 1	CC(=O)N1CCC[C@@H](c2nc(Nc3cccc(F)c3)cc(-c3cccnc3)n2)C1
> 10	CCC(=O)N1CCC[C@H](c2nc(Nc3cccc(F)c3)cc(-c3cccnc3)n2)C1
1 to 10	CCC(=O)N1CCC[C@@H](c2nc(Nc3cccc(F)c3)cc(-c3cccnc3)n2)C1
